From patent publication US20210378281A1, “INHIBITION OF SENSORY IRRITATION DURING CONSUMPTION OF NON-SMOKEABLE TOBACCO PRODUCTS” (priority 2010, published 2021)
Values joined by “and” are separate entries in the source; they are usually repeats but may differ in a detail not shown here. Equal entries are not always repeated. “Also recorded” adds a separate entry of the source.

Columns and labels:
[1] = tested on: TRPV1 receptors; conditions: increasing their responsiveness; J. Neurophysiol., 91: 1482-1491, 2004; cited from earlier work
[2] = target: TRPA1 receptors (Homo sapiens, UniProt O75762); conditions: cited from earlier work
TRPA1 receptors, sequence (O75762 whole entry): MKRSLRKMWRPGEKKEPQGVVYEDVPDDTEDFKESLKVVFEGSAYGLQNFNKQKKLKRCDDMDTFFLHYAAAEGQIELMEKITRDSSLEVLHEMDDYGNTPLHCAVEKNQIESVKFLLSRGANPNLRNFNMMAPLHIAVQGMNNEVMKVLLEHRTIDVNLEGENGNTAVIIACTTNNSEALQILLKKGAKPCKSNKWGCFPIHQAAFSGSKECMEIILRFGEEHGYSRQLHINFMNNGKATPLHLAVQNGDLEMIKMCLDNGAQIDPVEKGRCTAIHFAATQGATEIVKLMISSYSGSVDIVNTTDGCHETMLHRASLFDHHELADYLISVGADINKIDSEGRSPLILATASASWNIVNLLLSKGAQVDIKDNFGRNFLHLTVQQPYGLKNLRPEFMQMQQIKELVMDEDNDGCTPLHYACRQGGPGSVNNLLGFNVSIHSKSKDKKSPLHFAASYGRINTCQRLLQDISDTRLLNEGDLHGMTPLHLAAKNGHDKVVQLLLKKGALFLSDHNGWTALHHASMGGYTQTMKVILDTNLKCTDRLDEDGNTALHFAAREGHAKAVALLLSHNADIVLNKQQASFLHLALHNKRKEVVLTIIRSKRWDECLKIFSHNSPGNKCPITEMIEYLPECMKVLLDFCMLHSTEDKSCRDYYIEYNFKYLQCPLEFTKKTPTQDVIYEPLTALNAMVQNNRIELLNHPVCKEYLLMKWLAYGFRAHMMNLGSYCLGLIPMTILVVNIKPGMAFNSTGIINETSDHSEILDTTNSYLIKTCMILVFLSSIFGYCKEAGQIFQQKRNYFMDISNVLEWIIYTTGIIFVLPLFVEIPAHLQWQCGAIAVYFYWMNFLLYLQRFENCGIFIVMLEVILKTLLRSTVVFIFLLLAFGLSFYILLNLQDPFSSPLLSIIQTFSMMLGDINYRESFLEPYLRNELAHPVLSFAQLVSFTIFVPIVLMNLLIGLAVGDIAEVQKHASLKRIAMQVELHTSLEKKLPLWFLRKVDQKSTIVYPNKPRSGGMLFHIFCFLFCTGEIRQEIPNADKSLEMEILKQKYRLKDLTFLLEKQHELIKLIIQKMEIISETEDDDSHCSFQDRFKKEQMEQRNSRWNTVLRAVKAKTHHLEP

[3] = tested on: tongues of human volunteers; experiment: pre-treatment with camphor on sensory irritation from nicotine, tongues of human volunteers; assay type: in vivo; conditions: camphor 25, 50 or 100 ppm, 20 microliters on strip for 30 seconds before 0.1-0.3% nicotine
Source text: FIGS. 1 and 2 show the results of a study on the effect of pre-treatment with camphor on sensory irritation from nicotine. Camphor was applied to tongues of human volunteers prior to application of a nicotine solution. Randomized sides of tongues were selected for application of 20 microliters of 0 ppm, 25 ppm, 50 ppm, or 100 ppm of camphor on a strip (thus, about […], respectively) for 30 seconds. Then, the subjects sipped, rinsed, then spit 0.1%, 0.2%, or 0.3% of a nicotine solution for a 5 second application. Participants were then asked which side of the tongue has the strongest burning sensation. Responses were collected both immediately (within 5 seconds) (FIG. 1) and after 30 seconds (FIG. 2). Controls received no camphor, and a baseline was established at zero camphor.

[4] = tested on: nerve fibers; conditions: isolated mouse trachea model; cited from earlier work
[5] = tested on: mouth of participants; experiment: threshold of irritation from camphor, oral sip and swish of camphor solution; assay type: in vivo, human; set-up: key to irritation felt at 200 ppm / irritation felt at 300 ppm / irritation felt at 400 ppm / irritation felt at 1000 ppm / irritation felt at 2000 ppm / irritation felt at 4000 ppm / irritation felt at 6000 ppm: Y: the participant felt irritation at the indicated concentration; N: no irritation was felt
Method: A further study was conducted to determine the threshold at which camphor itself would cause sensory irritation.
Each test used two milliliters (2 ml) of a camphor solution. The camphor was dissolved in ethanol and further diluted in water. Participants received sequentially increasing concentration of camphor. Nine participants received samples including food grade racemic camphor, with concentrations of 200, 300, 400, […] 1000, 2000, 4000, 6000 ppm (corresponding to about […] per sample, respectively).
Participants wore nose clips during evaluation. Each participant sipped the sample, swished it in the mouth for 10 seconds, then spat it out. Each participant then indicated whether irritation was perceived. Between evaluations of each sample, participants rinsed with water and waited for one minute.
The left-most column indicates the participant number of each individual participant.

[6] = tested on: mouth of subjects using oral tobacco; experiment: snus pouches with camphor, perceived burning in the mouth, 2AFC design; assay type: in vivo, human
Method: A further study was conducted to determine if camphor affected perceived burning in the mouth of subjects using oral tobacco. Participants were given two snus pouch samples to use simultaneously, one in each side of the mouth. One sample was a control pouch with no camphor added and the other contained various concentrations of camphor ([…], based on tobacco weight, respectively). The hand-made test samples were constructed using unflavored tobacco (12% oven volatiles) to prevent any possible interference of the flavor system with the objective of the study. In preparing the pouches, the camphor was dissolved in 95% ethanol, with the control pouches receiving the ethanol only. Ten (10) microliters of one of the solutions was applied to each sample pouch (5 microliters per side). […] Responses were recorded on paper by the experimenter. […] Following each evaluation, participants were asked to give details regarding where the burning was felt and to provide any open-ended comments regarding their experience, which were recorded on paper by the experimenter. Participants repeated the sensory evaluation procedures an additional six (6) times, with a maximum of two (2) pairs being evaluated each day.

Compound	sensitization of TRPV1 receptors [1]	sensitization of TRPA1 receptors [2]	perceived burning from nicotine, 30 seconds after initial exposure ([3]; response after 30 seconds)	perceived burning from nicotine, immediately ([3]; response immediately (within 5 seconds))	inhibition of activation of nerve fibers induced by the nicotinic agonist nicotine [4]	irritation felt at 200 ppm ([5]; 200 ppm camphor, 2 ml solution, swished 10 seconds, one line per participant)	irritation felt at 300 ppm ([5]; 300 ppm camphor, 2 ml solution, swished 10 seconds, one line per participant)	irritation felt at 400 ppm ([5]; 400 ppm camphor, 2 ml solution, swished 10 seconds, one line per participant)	irritation felt at 1000 ppm ([5]; 1000 ppm camphor, 2 ml solution, swished 10 seconds, one line per participant)	irritation felt at 2000 ppm ([5]; 2000 ppm camphor, 2 ml solution, swished 10 seconds, one line per participant)	irritation felt at 4000 ppm ([5]; 4000 ppm camphor, 2 ml solution, swished 10 seconds, one line per participant)	irritation felt at 6000 ppm ([5]; 6000 ppm camphor, 2 ml solution, swished 10 seconds, one line per participant)	concentration at which a few participants were sensitive ([5]; a few participants, sensitive only at higher concentrations)	concentration at which most participants perceived tingling ([5]; most participants)	mean threshold for producing irritation ([5]; n=9)	Notes (sensation described by participant) ([5]; one line per participant, concentrations in ppm)	time at which the effect was strongest ([6]; 12 nanogram (50 ppm) camphor pouch, asked at 2, 5 and 10 minutes)	reduction of oral burning from snus pouch ([6]; 12 nanogram (corresponding to 50 ppm) camphor per pouch versus control pouch)
CN1CCCC1c1cccnc1 (stereo not drawn) [nicotine]	sensitize TRPV1 receptors	as well as TRPA1 receptors	–	–	–	–	–	–	–	–	–	–	–	–	–	–	–	–
CC12CCC(CC1=O)C2(C)C (racemic) [camphor]	–	–	significantly reduced perceived burning from nicotine	significantly reduced perceived burning from nicotine	effectively inhibit activation of nerve fibers	Y (3×) and N (6×)	Y (3×) and N (6×)	Y (4×) and N (4×)	N and Y (2×)	Y	Y	Y	1000-2000 ppm	200-300 ppm	655 ppm	Tingling at 300, tingling no burning; also recorded: No Burning, slight tingling on edges; also recorded: Some burning and stinging at 200,	10 min	most effective in reducing oral burning
